From paper PMC12304827 (British Journal of Clinical Pharmacology, 2025)
Like-named read-outs stand apart in the source and are kept apart here.

Tests used:
[1] = OC study 1: EE and LN PK with/without ritlecitinib 200 mg QD; assay type: in vivo, human; details: for AUC(0-inf) / Cmax / AUC(0-t): female, human, plasma, oral, healthy females; for AUC(0-inf): AUCinf; for AUC(0-t): AUClast
[2] = OC study 2: EE and LN PK with/without ritlecitinib 50 mg QD; assay type: in vivo, human; details: for AUC(0-inf) / AUC(0-t) / Cmax: female, human, plasma, oral; for Cmax: adjusted geometric mean (test), 1 Portia tablet on Day 10 of ritlecitinib 50 mg QD × 13 days, healthy females
[3] = tested on: CYP1A2; details: cited from earlier work
[4] = tested on: CYP1A2; experiment: Caffeine DDI study: caffeine PK with/without ritlecitinib; assay type: in vivo, human; details: from caffeine DDI at ritlecitinib 200 mg QD
[5] = tested on: CYP3A; experiment: Itraconazole DDI study: ritlecitinib PK with/without itraconazole; assay type: in vivo, human
[6] = tested on: CYP; experiment: Rifampicin DDI study: ritlecitinib PK with/without rifampicin; assay type: in vivo, human
[7] = tested on: CYP3A4/5; experiment: CYP time-dependent inhibition in human liver microsomes; assay type: in vitro ADME
[8] = biological target: T1, CYP1A2 (Homo sapiens, UniProt P05177); experiment: as above; assay type: in vitro ADME
T1 sequence (P05177 1-516): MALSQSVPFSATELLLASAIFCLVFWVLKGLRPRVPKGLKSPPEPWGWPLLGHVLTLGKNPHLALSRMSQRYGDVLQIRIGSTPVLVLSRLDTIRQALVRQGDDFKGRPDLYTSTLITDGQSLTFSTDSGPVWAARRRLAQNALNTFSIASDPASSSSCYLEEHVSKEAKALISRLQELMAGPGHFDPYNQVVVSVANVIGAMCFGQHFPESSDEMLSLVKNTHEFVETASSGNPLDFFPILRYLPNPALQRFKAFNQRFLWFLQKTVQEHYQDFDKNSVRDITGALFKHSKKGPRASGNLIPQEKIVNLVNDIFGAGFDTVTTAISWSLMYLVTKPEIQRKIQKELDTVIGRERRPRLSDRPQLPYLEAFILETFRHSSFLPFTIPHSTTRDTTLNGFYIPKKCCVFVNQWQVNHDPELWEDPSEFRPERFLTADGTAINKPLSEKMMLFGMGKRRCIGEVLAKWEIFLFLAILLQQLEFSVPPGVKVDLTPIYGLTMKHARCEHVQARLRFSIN

[9] = cited from earlier work
[10] = tested on: organic cation transporter 1 (OCT1); details: cited from earlier work
[11] = cited from earlier work; remark: listed apart in the source
[12] = tested on: CYP3A; experiment: Midazolam and efavirenz DDI study: midazolam PK with/without ritlecitinib
[13] = biological target: T2, CYP2B6 (Homo sapiens, UniProt P20813); details: for Effect of ritlecitinib on efavirenz AUC0–72 and Cmax (in words): ritlecitinib 200 mg QD
T2 sequence (P20813 1-491): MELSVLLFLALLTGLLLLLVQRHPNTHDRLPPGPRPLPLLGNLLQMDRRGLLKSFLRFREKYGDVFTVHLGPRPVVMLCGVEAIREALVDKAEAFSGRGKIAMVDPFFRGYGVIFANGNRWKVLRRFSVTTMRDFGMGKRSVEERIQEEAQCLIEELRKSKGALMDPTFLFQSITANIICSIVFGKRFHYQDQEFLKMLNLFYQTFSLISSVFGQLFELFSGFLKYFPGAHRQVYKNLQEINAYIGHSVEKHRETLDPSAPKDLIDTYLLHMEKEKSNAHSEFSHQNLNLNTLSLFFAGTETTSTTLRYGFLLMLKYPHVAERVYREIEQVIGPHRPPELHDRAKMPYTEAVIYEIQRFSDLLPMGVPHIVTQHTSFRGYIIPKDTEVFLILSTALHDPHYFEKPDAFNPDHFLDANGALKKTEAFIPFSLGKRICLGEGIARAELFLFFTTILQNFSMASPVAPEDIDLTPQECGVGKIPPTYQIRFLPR

[14] = adjusted geometric mean (reference), 1 Portia tablet (EE 30 μg and LN 150 μg) alone
[15] = adjusted geometric mean (test), 1 Portia tablet (EE 30 μg and LN 150 μg) on Day 10 of ritlecitinib 200 mg QD × 11 days
[16] = multiple ritlecitinib 200 mg QD doses
[17] = caffeine single dose with ritlecitinib 200 mg QD × 9 days, plasma
[18] = caffeine with ritlecitinib 200 mg QD × 9 days vs alone
[19] = caffeine with ritlecitinib 200 mg QD × 9 days vs alone, listed as caffeine
[20] = multiple 200-mg doses of itraconazole, ritlecitinib 30 mg
[21] = ritlecitinib 30 mg with itraconazole 200 mg QD × 5 days vs alone
[22] = ritlecitinib 50 mg with rifampicin 600 mg QD × 8 days vs alone
[23] = ritlecitinib 50 mg with rifampicin 600 mg QD × 8 days vs alone, listed as ritlecitinib
[24] = midazolam with ritlecitinib 200 mg QD × 11 days vs without
[25] = midazolam with ritlecitinib 200 mg QD × 11 days vs without, listed as midazolam
[26] = efavirenz with ritlecitinib 200 mg QD × 11 days vs without
[27] = efavirenz with ritlecitinib 200 mg QD × 11 days vs without, listed as efavirenz

## C#C[C@]1(O)CC[C@H]2[C@@H]3CCc4cc(O)ccc4[C@H]3CC[C@@]21C [EE, ethinyl oestradiol]
[1]; [14]
  AUC(0-inf): 0.0008 µg·h/mL
[1]; [15]
  AUC(0-inf): 0.000656 µg·h/mL
  Cmax: 0.0606 ng/mL
[1]; [16]
  Decrease of AUCinf following coadministration of ritlecitinib: ≈ 18%
  Decrease of Cmax following coadministration of ritlecitinib: ≈ 12%
[1]; ritlecitinib 200 mg QD
  Effect of ritlecitinib 200 mg QD on PK of OC steroid (in words): decreased
[2]; 50 mg
  AUC(0-inf): 0.000733 µg·h/mL
  AUC(0-t): 0.000605 µg·h/mL
  Cmax: 0.0638 ng/mL
[2]; 1 Portia tablet
  AUC(0-inf): 0.000747 µg·h/mL
  AUC(0-t): 0.000658 µg·h/mL
[2]
  Effect of ritlecitinib 50 mg QD on PK of OC steroid (in words): did not produce a clinically meaningful change
[2]; listed as ethinyl oestradiol
  Effect of ritlecitinib 50 mg QD on PK of OC steroid (in words): no relevant change

## Cn1c(=O)c2c(ncn2C)n(C)c1=O [Caffeine, caffeine]
[3]; caffeine alone, plasma
  AUCinf, adjusted geometric mean (reference): 15 660 ng h/mL
  AUClast, adjusted geometric mean (reference): 14 780 ng h/mL
  Cmax, adjusted geometric mean (reference): 2162 ng/mL
[3]; [17]
  AUCinf, adjusted geometric mean (test): 41 530 ng h/mL
  AUClast, adjusted geometric mean (test): 38 580 ng h/mL
  Cmax, adjusted geometric mean (test): 2372 ng/mL
[3]; [18]
  AUClast, ratio (test/reference) of adjusted geometric means (90% CI): 261.0 (232.5−293.1) %
  Cmax, ratio (test/reference) of adjusted geometric means (90% CI): 109.7 (103.9−115.9) %
[3]; [19]
  AUCinf, ratio (test/reference) of adjusted geometric means (90% CI): 265.1%
  Cmax, ratio (test/reference) of adjusted geometric means (90% CI): 109.7%
[3]; ritlecitinib 200 mg QD
  Fold increase of caffeine AUCinf by ritlecitinib: ≈ 2.7 fold
  Fold increase of caffeine Cmax by ritlecitinib: ~1.1 fold
  Increase of caffeine AUCinf in the presence of ritlecitinib: ≈ 165%
  Increase of caffeine Cmax in the presence of ritlecitinib: ≈ 10%

## C=CC(=O)N1C[C@H](Nc2ncnc3[nH]ccc23)CC[C@@H]1C [Ritlecitinib, ritlecitinib]
[4]
  Classification as clinical CYP1A2 inhibitor: moderate inhibitor
[5]; human, plasma, oral, 30 mg
  AUC(0-inf): 0.268 µg·h/mL
  AUC(0-t): 0.264 µg·h/mL
  Cmax: 153 ng/mL
[5]; [20]
  Effect of itraconazole on ritlecitinib Cmax (in words): similar
  Increase of ritlecitinib AUCinf with itraconazole: ≈ 15%
[5]; [21]
  AUCinf, ratio (test/reference) of adjusted geometric means (90% CI): 115.1 (104.6–126.7) %
  AUClast, ratio (test/reference) of adjusted geometric means (90% CI): 115.1 (104.4–126.7) %
  Cmax, ratio (test/reference) of adjusted geometric means (90% CI): 102.5 (82.8–127.0) %
[6]; multiple rifampicin doses, ritlecitinib 50 mg
  Decrease of ritlecitinib AUCinf with rifampicin: ≈ 45%
[6]; [22]
  AUCinf, ratio (test/reference) of adjusted geometric means (90% CI): 55.8 (51.9–59.9) %
  AUClast, ratio (test/reference) of adjusted geometric means (90% CI): 55.7 (51.9–59.7) %
  Cmax, ratio (test/reference) of adjusted geometric means (90% CI): 75.1 (63.3–89.1) %
[6]; [23]
  AUCinf, ratio (test/reference) of adjusted geometric means (90% CI): 55.8%
  Cmax, ratio (test/reference) of adjusted geometric means (90% CI): 75.1%
[6]; typical exposure range 0.5- to 2-fold of mean exposure
  Clinical relevance of exposure change with rifampicin (in words): not decreased to clinically relevant levels
[7]
  Time-dependent inhibition of CYP3A in vitro (in words): time dependent inhibitor
[8]
  Time-dependent inhibition of CYP1A2 in vitro (in words): time dependent inhibitor
[9]
  Contribution of any single pathway to metabolism: ≤ 25%
  Predicted collective contribution of CYPs to metabolic disposition: ≈ 47%
  Predicted contribution of glutathione conjugation to metabolic disposition: ≈ 24%
[10]
  Inhibition of OCT1 (in words): inhibitor
[11]; quoted for the study design, ref previous studies
  Half-life (t½) of ritlecitinib: < 2 h
[11]; up to 200 mg
  Dose proportionality of exposure (in words): approximately dose‐proportionally
[12]; from midazolam DDI at ritlecitinib 200 mg QD
  Classification as clinical CYP3A inhibitor: moderate inhibitor

## Cc1ncc2n1-c1ccc(Cl)cc1C(c1ccccc1F)=NC2 [Midazolam, midazolam]
[12]; [24]
  AUCinf, ratio (test/reference) of adjusted geometric means (90% CI): 269.4 (216.1–335.9) %
  AUClast, ratio (test/reference) of adjusted geometric means (90% CI): 269.3 (215.8–336.1) %
  Cmax, ratio (test/reference) of adjusted geometric means (90% CI): 180.8 (148.1–220.6) %
[12]; [25]
  AUCinf, ratio (test/reference) of adjusted geometric means (90% CI): 269.4%
  Cmax, ratio (test/reference) of adjusted geometric means (90% CI): 180.8%
[12]; ritlecitinib 200 mg QD
  Fold increase of midazolam AUCinf in the presence of ritlecitinib: 2.7 fold
  Fold increase of midazolam Cmax in the presence of ritlecitinib: 1.8 fold
  Increase of midazolam AUCinf in the presence of ritlecitinib: ≈ 169%
[12]; ritlecitinib 200 mg QD, listed as midazolam
  Fold increase of midazolam AUCinf in the presence of ritlecitinib: ≈ 2.7 fold

## C#C[C@]1(O)CC[C@H]2[C@@H]3CCC4=CC(=O)CC[C@@H]4[C@H]3CC[C@@]21CC [LN, levonorgestrel]
[1]; [14]
  AUC(0-t): 0.0238 µg·h/mL
  Cmax: 2.94 ng/mL
[1]; [15]
  AUC(0-t): 0.0268 µg·h/mL
  Cmax: 3.03 ng/mL
[2]; 50 mg
  AUC(0-t): 0.0296 µg·h/mL
  Cmax: 2.32 ng/mL
[2]; 1 Portia tablet
  AUC(0-t): 0.0337 µg·h/mL

## O=C1Nc2ccc(Cl)cc2[C@@](C#CC2CC2)(C(F)(F)F)O1 [Efavirenz, efavirenz]
[13]; [26]
  AUC0–72, ratio (test/reference) of adjusted geometric means (90% CI): 99.7 (95.2–104.4) %
  AUClast, ratio (test/reference) of adjusted geometric means (90% CI): 99.7 (95.3–104.4) %
  Cmax, ratio (test/reference) of adjusted geometric means (90% CI): 88.2 (77.1–101.0) %
[13]; [27]
  AUC0–72, ratio (test/reference) of adjusted geometric means (90% CI): 99.7%
  Cmax, ratio (test/reference) of adjusted geometric means (90% CI): 88.2%
[13]
  Effect of ritlecitinib on efavirenz AUC0–72 and Cmax (in words): similar
[13]; listed as efavirenz
  Effect of ritlecitinib on efavirenz AUC0–72 and Cmax (in words): did not produce clinically meaningful changes
